Consider six compounds from patent publication US11192916B2, “Pentacyclic triterpene compound and preparation method therefor, and pharmaceutical composition and use thereof” (SHANGHAI INSTITUTE OF MATERIA MEDICA, CHINESE ACADEMY OF …, priority 2017, dated 2021).

The term IC50 denotes the midpoint of a concentration-inhibition curve. Low values mean inhibition by little substance, high ones a need for much substance.

What all share (type): cell-based
In one series the target is T1, FXR (Homo sapiens, UniProt Q96RI1).
T1 sequence (Q96RI1 262-486 limits assumed): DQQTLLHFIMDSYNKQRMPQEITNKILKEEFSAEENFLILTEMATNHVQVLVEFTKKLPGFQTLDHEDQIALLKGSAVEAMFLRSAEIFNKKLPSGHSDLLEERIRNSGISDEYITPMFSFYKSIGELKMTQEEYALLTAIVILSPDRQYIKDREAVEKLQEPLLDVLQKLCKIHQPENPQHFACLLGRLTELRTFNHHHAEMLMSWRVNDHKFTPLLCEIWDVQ
As to the kind of experiment: FXR antagonist test, luciferase reporter gene experiment against agonist GW4064. To be noted: antagonistic activity; HEK293 cells co-transfected with LBD(hFXR)-pbind and luciferase reporter; GW4064 300 nM. The source says: The antagonistic activity of the compound against FXR was detected by the reporter gene experiment. FXR is a nuclear receptor activated by bile acids and has regulatory effects on glucose metabolism and lipid metabolism in the body. After FXR is activated, it can initiate the expression of a series of genes and respond to external stimuli. The Luciferase reporter gene system is a reporting system for detecting firefly luciferase activity. Luciferase can catalyze the oxidation of Luciferin, a fluorescent substrate, and cause emition of biological fluorescence at the same time. The amount of luciferase expression can be determined by detecting the fluorescence intensity. In this experiment, the test compound may target FXR, and GW4064 is a known FXR agonist, which initiates the expression of a series of genes after binding to the FXR ligand-binding domain. Therefore, the reporter gene experiment was used. Two plasmids, LBD (hFXR)-pbind and PGL4.31-Luc were co-transfected into HEK293 cells to express the FXR ligand-binding domain in the cells. Two test compounds were separately added and a blank control group was set, and then an agonist was added. If the compound has affinity for FXR, it will compete with the agonist for binding to the FXR ligand-binding domain and affect the expression of luciferase in pGL4.31-Luc. The Envision2101 multi-well microplate reader was used to detect the chemiluminescence count value, and the effect of the test compound on FXR activity was judged based on the fluorescence intensity. 2 μg of the chimeric plasmid LBD(hFXR)-pbind and 2 μg of Luciferase reporter plasmid were co-transfected into 2×10^6 HEK293 cells and inoculated in white opaque 96-well plates. After 24 h, the culture medium was discarded, and the test compound (diluted with serum-free culture medium, containing 1% DMSO) was added and incubated for 1 h. Then FXR agonist GW4064 (300 nM) was added to stimulate for 6 h, and finally luciferase substrate was added and shaken to lyse. Luminescence was measured on the Envision 2104 microplate reader.
(A reporter such as luciferase makes a cellular process visible.)

The target in a further series is T2, TGR5 (Homo sapiens, UniProt Q8TDU6).
T2 construct: expressed in transfected cells; host or cells: HEK293
T2 sequence (Q8TDU6 1-330): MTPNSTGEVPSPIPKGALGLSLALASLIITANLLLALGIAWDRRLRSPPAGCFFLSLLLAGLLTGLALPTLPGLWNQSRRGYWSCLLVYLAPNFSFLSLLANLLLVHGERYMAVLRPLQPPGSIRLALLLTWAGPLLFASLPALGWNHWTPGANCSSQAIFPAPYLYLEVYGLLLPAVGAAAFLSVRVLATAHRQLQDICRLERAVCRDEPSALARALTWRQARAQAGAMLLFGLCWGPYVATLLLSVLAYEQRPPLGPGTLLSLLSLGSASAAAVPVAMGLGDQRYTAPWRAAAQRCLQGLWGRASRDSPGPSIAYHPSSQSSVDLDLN
As to the kind of experiment: TGR5 agonist test, HTRF cAMP detection in HEK293 cells transiently transfected with TGR5. The settings on record: Table 2, TGR5 agonistic activity, HEK293 cells expressing TGR5, up to 100 μM, read-out: FXR (IC50/μM). The source says:
HEK293 cells transiently transfected with TGR5 were stimulated with compounds, and then homogeneous time-resolved fluorescence (HTRF) was used to detect whether these compounds could agitate TGR5.
TGR5 is a bile acid membrane receptor and a member of the GPCR family. It regulates the metabolism of bile acids, lipids, and sugars. TGR5 is coupled to the Gs protein, and after activation, it further activates adenylate cyclase to produce a second messenger cAMP. HTRF is a method for detecting the content of cAMP and combines two techniques of fluorescence resonance energy transfer (FRET) and time-resolved fluorescence (TRF). […] FRET induces the acceptor to generate fluorescence, and Eu has a long fluorescence lifetime. TRF can distinguish the fluorescent signal by the acceptor from the fluorescent background. The fluorescent donor is bound to a cAMP-specific antibody, and cAMP is simultaneously labeled with a fluorescent acceptor. The donor and acceptor approach to each other through the antigen-antibody specific recognition reaction to generate FRET, and the cAMP produced by the cell competes with the labeled cAMP for antibody binding sites, resulting in the decrease of fluorescence intensity.
4.1. The test compound was prepared with 1× PBS into a solution having 2 times of the final concentration. The final concentration was 100 μM, 10 μM, 1 μM, 100 nM, 10 nM, 1 nM, 0.1 nM, DMSO (each well contains 1% DMSO).
4.2.2. The cell density was determined. At the same time, IBMX (final concentration of […]) was added into the serum-free culture medium, and the number of cells was 2000/5 μl/well.
4.2.3. 5 μl of the test compound and 5 μl of the cell suspension containing IBMX were added and mixed. A 384-well plate was sealed with a foil paper. The mixtures were protected from light and reacted at room temperature for […].
4.3.1 1 μl cAMP-d2 was diluted to 20 μl by using cAMP&cGMP conjugates & lysis buffer. 4.3.2 1 μl anti-cAMP-Cryptate was diluted to 20 μl by using cAMP&cGMP conjugates&lysis buffer.
4.3.3 After 30 minutes, 5 μl (1.3.1) and 5 μl (1.3.2) were added and a 384-well plate was sealed with a foil paper. The mixtures were protected from light and reacted at room temperature.
4.4. After 60 minutes, the values were detected by Envision 2101 microplate reader (PerkinElmer).
On the technique in general: TR-FRET usually uses a lanthanide donor and a delayed reading to cut background.

For another series, the system named is HEK293 cells. As to the kind of experiment: CCK-8 cytotoxicity test. To be noted: for CCK-8 Assay (30 μM): cytotoxicity on HEK293 cells at 30 μM; for CCK-8 Assay (100 μM): cytotoxicity on HEK293 cells at 100 μM. As for the experimental part: The cytotoxicity of the compounds was evaluated by using CCK-8 experiment. CCK-8 is an indicator of redox reaction. In the presence of the electron carrier 1-Methoxy PMS, dehydrogenase in living cells is used to catalyze the tetrazolium salt WST-8 to form formazan dye. The production amount of formazan dye has a linear relationship with the number of living cells. The light absorption value measured at 450 nm using a microplate reader can indirectly reflect the number of living cells. Therefore, this method is used for the activity detection of some bioactive factors, large-scale anti-tumor drug screening, cell proliferation test, cytotoxicity test, and drug sensitivity test. This experiment is used to evaluate the cytotoxicity of the compounds. 2 μg of the chimeric plasmid LBD(hFXR)-pbind and 2 μg of Luciferase reporter plasmid were co-transfected into 2×10^6 HEK293 cells and inoculated in transparent 96-well plates. After 24 h, the culture medium was discarded and the test compound (diluted in serum-free culture medium, containing 1% DMSO) was added and incubated for 1 h, then FXR agonist GW4064 (300 nM) was added to agitate for 4 h. 10 μl detection reagent for CCK-8 was added to each well. After 2 hours, absorbance values at 450 nm and 650 nm (as reference wavelength) were detected with Flextation instrument.
For orientation: Tetrazolium assays rely on reduction of a dye to a coloured formazan, in cell work by metabolically active cells.

For the compound `CCCC(=O)O[C@@H]1CC[C@@]2(C)C(CC[C@]3(C)C2CCC2C4[C@H](C(C)C)CC[C@]4(C(=O)NCC(=O)O)CC[C@]23C)C1(C)C` (stereo partly drawn) [Compound C4], the IC50 at FXR was determined as 2.05 µM. For the same compound, on TGR5, the EC50 was greater than 100 µM. Besides, in the series on HEK293 cells, the “CCK-8 Assay (30 μM)” value is recorded as “no” and the “CCK-8 Assay (100 μM)” value is on record as “no”.
Compound `CC(C)[C@@H]1CC[C@]2(C(=O)NCC(=O)O)CC[C@]3(C)C(CCC4[C@@]5(C)CC[C@@H](OC(=O)c6cccnc6)C(C)(C)C5CC[C@]43C)C12` (stereo partly drawn) [Compound C16] showed an IC50 on FXR of 5.67 µM. Besides, the EC50 at TGR5 was greater than 100 µM. Moreover, in the series on HEK293 cells, the “CCK-8 Assay (30 μM)” value is “no” and the “CCK-8 Assay (100 μM)” value was “no”.
In turn, `CC(=O)O[C@@H]1CC[C@@]2(C)C(CC[C@]3(C)C2CCC2C4[C@H](C(C)C)CC[C@]4(C(=O)NCC(=O)O)CC[C@]23C)C1(C)C` (stereo partly drawn) [Compound C2] returned a concentration for half-maximal inhibition (IC50) on FXR of 6.31 µM. At TGR5, the EC50 was greater than 100 µM. Moreover, in the series with HEK293 cells, the “CCK-8 Assay (30 μM)” value is “no” and the “CCK-8 Assay (100 μM)” value is “no”.
At FXR, `CC(C)[C@@H]1CC[C@]2(C(=O)NCC(=O)O)CC[C@]3(C)C(CCC4[C@@]5(C)CC[C@@H](O)C(C)(C)C5CC[C@]43C)C12` (stereo partly drawn) [Compound C1] returned a half-inhibitory concentration (IC50) of 13.9 µM. Also, the EC50 at TGR5 is greater than 100 µM. In the series with HEK293 cells, the “CCK-8 Assay (30 μM)” value was “no” and the “CCK-8 Assay (100 μM)” value is given as “no”.
With `CCCC(=O)O[C@H]1CC[C@@]2(C)C(CC[C@]3(C)C2CCC2C4[C@H](C(C)C)CC[C@]4(C(=O)NCC(=O)O)CC[C@]23C)C1(C)C` (stereo partly drawn) [Compound C12], the IC50 at FXR was 8.27 µM. Also, the EC50 at TGR5 is greater than 100 µM. Besides, in the series with HEK293 cells, the “CCK-8 Assay (30 μM)” value is “no” and the “CCK-8 Assay (100 μM)” value is given as “no”.
The compound `CCC(=O)O[C@@H]1CC[C@@]2(C)C(CC[C@]3(C)C2CCC2C4[C@H](C(C)C)CC[C@]4(C(=O)NCC(=O)O)CC[C@]23C)C1(C)C` (stereo partly drawn) [Compound C3] showed a half-maximal inhibitory concentration (IC50) at FXR of 3.89 µM. Further, the EC50 on TGR5 is greater than 100 µM. In addition, in the series with HEK293 cells, the “CCK-8 Assay (30 μM)” value is “no” and the “CCK-8 Assay (100 μM)” value was “no”.
